In patent publication US9415055B2, “Cyclic amines” (H. Lundbeck A/S, priority 2012, dated 2016):

Target: P2X7 receptor (Homo sapiens (Human), UniProt Q99572)
Assay: P2X7 FLIPR assay: antagonism of BzATP response in 293 HEK cells stably expressing P2X7 receptor
Type: cell-based
Conditions: FLIPR fluorescence (Fluo-4), agonist BzATP, 293 HEK cells stably transfected with P2X7 receptor
Outline: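 Antagonist IC50 derived from FLIPR Tetra Fluo-4 calcium signal evoked by BzATP. Compound pre-incubation was 30 min at room temperature on P2X7-expressing HEK293 cells, seeded 24 h before in low-serum medium and dye-loaded 30 min at 37 °C then 30 min at RT.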

P2X7 receptor, sequence (Q99572 whole entry): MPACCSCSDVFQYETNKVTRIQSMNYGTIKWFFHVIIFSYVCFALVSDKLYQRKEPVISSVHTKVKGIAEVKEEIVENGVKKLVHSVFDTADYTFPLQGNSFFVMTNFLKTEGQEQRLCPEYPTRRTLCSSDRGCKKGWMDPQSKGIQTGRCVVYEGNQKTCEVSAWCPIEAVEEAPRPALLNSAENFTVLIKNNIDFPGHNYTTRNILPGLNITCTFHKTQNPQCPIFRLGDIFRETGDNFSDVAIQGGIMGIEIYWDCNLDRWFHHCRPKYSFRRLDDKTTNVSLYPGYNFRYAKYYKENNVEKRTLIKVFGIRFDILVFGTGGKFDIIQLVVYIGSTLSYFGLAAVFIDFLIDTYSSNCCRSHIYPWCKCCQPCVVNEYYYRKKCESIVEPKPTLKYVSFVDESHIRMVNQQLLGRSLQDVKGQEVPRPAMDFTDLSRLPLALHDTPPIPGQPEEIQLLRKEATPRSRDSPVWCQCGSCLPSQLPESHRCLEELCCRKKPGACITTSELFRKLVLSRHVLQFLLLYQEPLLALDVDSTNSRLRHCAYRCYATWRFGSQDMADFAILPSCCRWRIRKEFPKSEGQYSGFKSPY

Row | Compound | IC50 [nM]
1 | Cc1ncc(C(CNC(=O)c2ccccc2Cl)N2CCC(F)(F)CC2)cn1 (single isomer, unassigned; (-)) [(−)2-chloro-N-[2-(4,4-difluoro-1-piperidyl)-2-(2-methylpyrim] [(−)2-chloro-N-[2-(4,4-difluoro-1-piperidyl)-2-(2-methylpyrimidin-5-yl)ethyl]benzamide] | 24
2 | Cc1ccc(C(CNC(=O)c2cccc(F)c2Cl)N2CCC(F)(F)CC2)cn1 (single isomer, unassigned; (-)) [(−)2-chloro-N-[2-(4,4-difluoro-1-piperidyl)-2-(6-methyl-3-pr] [(−)2-chloro-3-fluoro-N-(2-(4,4-difluoropiperidin-1-yl)-2-(2-methylpyridin-5-yl)ethyl)benzamide] | 21
3 | Cc1ccc(C(CNC(=O)c2c(F)cccc2Cl)N2CCC(F)(F)CC2)cn1 (single isomer, unassigned; (-)) [(−)2-chloro-N-[2-(4,4-difluoro-1-piperidyl)-2-(6-methyl-3-py] [(−)2-chloro-N-(2-(4,4-difluoropiperidin-1-yl)-2-(6-methylpyridin-3-yl)ethyl)-6-fluorobenzamide] | 22
4 | COc1ccc(C(=O)NCC(c2cnc(C(F)(F)F)nc2)N2CCC(F)(F)CC2)c(Cl)c1OC (single isomer, unassigned; (-)) [(−)2-chloro-N-[2-(4,4-difluoro-1-piperidyl)-2-[2-(trifluorom] [(−)2-chloro-3,4-dimethoxy-N-(2-(4,4-difluoropiperidin-1-yl)-2-(2-(trifluoromethyl)pyrimidin-5-yl)ethyl)benzamide] | 7.8
5 | O=C(NCC(c1cnc(C(F)(F)F)nc1)N1CCC(F)(F)CC1)c1c(F)cc(F)cc1Cl (single isomer, unassigned; (-)) [(−)2-chloro-N-[2-(4,4-difluoro-1-piperidyl)-2-[2-(trifluorom] [(−)2-chloro-4,6-difluoro-N-(2-(4,4-difluoropiperidin-1-yl)-2-(2-(trifluoromethyl)pyrimidin-5-yl)ethyl)benzamide] | 31
6 | COc1ccc(C(=O)NCC(c2cnc(C(F)(F)F)nc2)N2CCC(F)(F)CC2)c(Cl)c1 (single isomer, unassigned; (-)) [(−)2-chloro-N-[2-(4,4-difluoro-1-piperidyl)-2-[2-(trifluorom] [(−)2-chloro-4-methoxy-N-(2-(4,4-difluoropiperidin-1-yl)-2-(2-(trifluoromethyl)pyrimidin-5-yl)ethyl)benzamide] | 2.2
7 | O=C(NCC(c1cnc(C(F)(F)F)nc1)N1CCC(F)(F)CC1)c1c(F)cccc1Cl (single isomer, unassigned; (-)) [(−)2-chloro-N-[2-(4,4-difluoro-1-piperidyl)-2-[2-(trifluorom] [(−)2-chloro-6-fluoro-N-(2-(4,4-difluoropiperidin-1-yl)-2-(trifluoromethyl)pyrimidin-5-yl)ethyl)benzamide] | 8.2
8 | O=C(NCC(c1cnc(C(F)(F)F)nc1)N1CCC(F)(F)CC1)c1cccc(F)c1Cl (single isomer, unassigned; (-)) [(−)2-chloro-N-[2-(4,4-difluoro-1-piperidyl)-2-[2-(trifluorom] [(−)2-chloro-N-(2-(4,4-difluoropiperidin-1-yl)-2-(2-(trifluoromethyl)pyrimidin-5-yl)ethyl)-3-fluorobenzamide] | 4.2
9 | COc1cccc(C(=O)NCC(c2cnc(C(F)(F)F)nc2)N2CCC(F)(F)CC2)c1Cl (single isomer, unassigned; (-)) [(−)2-chloro-N-[2-(4,4-difluoro-1-piperidyl)-2-[2-(trifluorom] [(−)2-chloro-N-(2-(4,4-difluoropiperidin-1-yl)-2-(2-(trifluoromethyl)pyrimidin-5-yl)ethyl)-3-methoxybenzamide] | 4.8
10 | COc1ccc(F)c(C(=O)NCC(c2cnc(C(F)(F)F)nc2)N2CCC(F)(F)CC2)c1Cl (single isomer, unassigned; (-)) [(−)2-chloro-N-[2-(4,4-difluoro-1-piperidyl)-2-[2-(trifluorom] [(−)2-chloro-N-(2-(4,4-difluoropiperidin-1-yl)-2-(2-(trifluoromethyl)pyrimidin-5-yl)ethyl)-6-fluoro-3-methoxybenzamide] | 31
11 | O=C(NCC(c1ccc(C(F)(F)F)nc1)N1CCC(F)(F)CC1)c1c(F)cccc1Cl (single isomer, unassigned; (-)) [(−)2-chloro-N-[2-(4,4-difluoro-1-piperidyl)-2-[6-(trifluorom] [(−)2-chloro-6-fluoro-N-(2-(4,4-difluoropiperidin-1-yl)-2-(trifluoromethyl)pyridin-5-yl)ethyl)benzamide] | 3
12 | O=C(NCC(c1ccc(C(F)(F)F)nc1)N1CCC(F)(F)CC1)c1cccc(F)c1Cl (single isomer, unassigned; (-)) [(−)2-chloro-N-[2-(4,4-difluoro-1-piperidyl)-2-[6-(trifluorom] [(−)2-chloro-N-(2-(4,4-difluoropiperidin-1-yl)-2-(2-(trifluoromethyl)pyridin-5-yl)ethyl)-3-fluorobenzamide] | 5.7
13 | COc1cccc(C(=O)NCC(c2ccc(Cl)cc2)N2CCOCC2)c1Cl (single isomer, unassigned; (-)) [(−)2-chloro-N-[2-(4-chlorophenyl)-2-morpholino-ethyl]-3-meth] [(−)2-chloro-N-(2-(4-chlorophenyl)-2-morpholinoethyl)-3-methoxybenzamide] | 1.5
14 | N#Cc1ccc(Cl)c(C(=O)NCC(c2ccc(Cl)cc2)N2CCOCC2)c1 (single isomer, unassigned; (-)) [(−)2-chloro-N-[2-(4-chlorophenyl)-2-morpholino-ethyl]-5-cyan] [(−)2-chloro-N-(2-(4-chlorophenyl)-2-morpholinoethyl)-5-cyanobenzamide] | 110
15 | CS(=O)(=O)c1ccc(Cl)c(C(=O)NCC(c2ccc(Cl)cc2)N2CCOCC2)c1 (single isomer, unassigned; (-)) [(−)2-chloro-N-[2-(4-chlorophenyl)-2-morpholino-ethyl]-5-meth] [(−)2-chloro-N-(2-(4-chlorophenyl)-2-morpholinoethyl)-5-(methylsulfonyl)benzamide] | 65
16 | Cc1ncc(C(CNC(=O)c2ccccc2Cl)N2CCC(F)CC2)cn1 (single isomer, unassigned; (-)) [(−)2-chloro-N-[2-(4-fluoro-1-piperidyl)-2-(2-methylpyrimidin] [(−)2-chloro-N-(2-(4-fluoropiperidin-1-yl)-2-(2-methylpyrimidin-5-yl)ethyl)benzamide] | 45
17 | O=C(NCC(c1cnc(C(F)(F)F)nc1)N1CCC(F)CC1)c1ccccc1Cl (single isomer, unassigned; (-)) [(−)2-chloro-N-[2-(4-fluoro-1-piperidyl)-2-[2-(trifluoromethy] [(−)2-chloro-N-(2-(4-fluoropiperidin-1-yl)-2-(2-(trifluoromethyl)pyrimidin-5-yl)ethyl)benzamide] | 13
18 | O=C(NCC(c1cnc(C(F)F)nc1)N1CCOCC1)c1cccc(F)c1Cl (single isomer, unassigned; (-)) [(−)2-chloro-N-[2-[2-(difluoromethyl)pyrimidin-5-yl]-2-morpho] [(−)2-chloro-3-fluoro-N-(2-(2-(difluoromethyl)pyrimidin-5-yl)-2-morpholinoethyl)benzamide] | 38
19 | O=C(NCC(c1cnc(C(F)F)nc1)N1CCOCC1)c1ccccc1Cl (single isomer, unassigned; (-)) [(−)2-chloro-N-[2-[2-(difluoromethyl)pyrimidin-5-yl]-2-morpho] [(−)2-chloro-N-(2-(2-(difluoromethyl)pyrimidin-5-yl)-2-morpholinoethyl)benzamide] | 15
20 | COc1cccc(C(=O)NCC(c2ccc(C(F)F)nc2)N2CCC(F)(F)CC2)c1Cl (single isomer, unassigned; (-)) [(−)2-chloro-N-[2-[6-(difluoromethyl)-3-pyridyl]-2-(4,4-diflu] [(−)2-chloro-3-methoxy-N-(2-(2-(difluoromethyl)pyridin-5-yl)-2-(4,4-difluoropiperidin-1-yl)ethyl)benzamide] | 1.9
21 | O=C(NCC(c1ccc(C(F)F)nc1)N1CCC(F)(F)CC1)c1ccccc1Cl (single isomer, unassigned; (-)) [(−)2-chloro-N-[2-[6-(difluoromethyl)-3-pyridyl]-2-(4,4-diflu] [(−)2-chloro-N-(2-(2-(difluoromethyl)pyridin-5-yl)-2-(4,4-difluoropiperidin-1-yl)ethyl)benzamide] | 12
22 | O=C(NCC(c1cnc(C(F)(F)F)nc1)N1CCOCC1)c1cccc(C(F)(F)F)c1Cl (single isomer, unassigned; (-)) [(−)2-chloro-N-[2-morpholino-2-[2-(trifluoromethyl)pyrimidin-] [(−)2-Chloro-N-[2-morpholino-2-[2-(trifluoromethyl)pyrimidin-5-yl]ethyl]-3-(trifluoromethyl)benzamide] | 9.9
23 | O=C(NCC(c1cnc(C(F)(F)F)nc1)N1CCOCC1)c1ccccc1Cl (single isomer, unassigned; (-)) [(−)2-chloro-N-[2-morpholino-2-[2-(trifluoromethyl)pyrimidin-] [(−)2-Chloro-N-[2-morpholino-2-[2-(trifluoromethyl)pyrimidin-5-yl]ethyl]benzamide] | 15
24 | O=C(NCC(c1ccc(C(F)(F)F)nc1)N1CCOCC1)c1cccc(C(F)(F)F)c1Cl (single isomer, unassigned; (-)) [(−)2-chloro-N-[2-morpholino-2-[6-(trifluoromethyl)-3-pyridyl] [(−)2-Chloro-N-[2-morpholino-2-[6-(trifluoromethyl)-3-pyridyl]ethyl]-3-(trifluoromethyl)benzamide] | 12
25 | COc1ccccc1C(=O)NCC(c1ccc(C(F)(F)F)nc1)N1CCOCC1 (single isomer, unassigned; (-)) [(−)2-methoxy-N-[2-morpholino-2-[6-(trifluoromethyl)-3-pyridy] [(−)2-Methoxy-N-[2-morpholin-4-yl-2-(6-trifluoromethyl-pyridin-3-yl)-ethyl]-benzamide] | 21
26 | Cc1ncc(C(CNC(=O)c2cccc(Cl)c2Cl)N2CCC(=O)CC2)cn1 (centres unmarked) [2,3-Dichloro-N-(2-(2-methylpyrimidin-5-yl)-2-(4-oxopiperidin-1-yl)ethyl)benzamide] | 19
